Measurements taken from US20050215544A1, “Methods of treating HIV infection” (priority 2004, published 2005).

Experiments:
uninfected cells = experiment: Cytotoxicity assay of the drug combinations in uninfected cells (MTS); format: cell-based; conditions: combination with Compound 1 at highest concentrations tested, six days
Description: Drug Susceptibility and Cytotoxicity Assays. […] Each drug ratio consisted of an array of 3-fold serial dilutions, and was performed in quadruplicate. The plates were incubated at 37° C./5% CO2. […] On day-five post-infection, 20 μl from each well was harvested and quantitated by a reverse transcriptase (RT) assay, or in samples involving non-nucleoside RT inhibitors, an MTS assay. The PM-1 cells infected with HIV-1 Bal and used for studying the combinations with CCR5 inhibitors were incubated for six days. On day-six post-infection, 20 μl from each well was harvested, 20- and 50-fold diluted and quantitated by p24 assay. Cytotoxicity assays were performed using uninfected cells, exposed to the same drug combinations, and incubated for six days. Cell viability was determined by an MTS assay. The CC50 values were calculated by using the exponential form of the median effect equation as mentioned below for calculation of EC50.

HIV-1 LAI [1] = experiment: microbe, parasite or virus in culture
Description: (§1) Virus and cell lines. The T-cell lines, MT-2 and PM-1 were obtained through the AIDS Research and Reference Reagent Program, NIAID, and were contributed by Dr. D. Richman and Dr. R. Gallo, respectively. Both cell lines were cultured in RPMI 1640 medium supplemented with 10% fetal bovine serum, 2 mM L-glutamine and sub-cultured twice a week. The LAI strain of HIV-1 was obtained from the Fred Hutchinson Cancer Research Center, and the Bal strain was from NIH. Both virus stocks were amplified and titered in MT-2 cells (LAI) and PM-1 cells (Bal) using a virus infectivity assay.
(§2) Drug Susceptibility and Cytotoxicity Assays. For drug susceptibility assays, MT-2 cells were infected with HIV-1 LAI (or PM-1 cells with HIV-1 Bal) at an MOI of 0.005, and seeded into 96-well microtiter plates ([…] cells/ml) containing serial dilutions of test compounds. […] Each drug ratio consisted of an array of 3-fold serial dilutions, and was performed in quadruplicate. The plates were incubated at 37° C./5% CO2. The MT-2 cells infected with HIV-1 LAI were incubated for 5 days. On day-five post-infection, 20 μl from each well was harvested and quantitated by a reverse transcriptase (RT) assay, or in samples involving non-nucleoside RT inhibitors, an MTS assay. The PM-1 cells infected with HIV-1 Bal and used for studying the combinations with CCR5 inhibitors were incubated for six days. On day-six post-infection, 20 μl from each well was harvested, 20- and 50-fold diluted and quantitated by p24 assay. Cytotoxicity assays were performed using uninfected cells, exposed to the same drug combinations, and incubated for six days. Cell viability was determined by an MTS assay. The CC50 values were calculated by using the exponential form of the median effect equation as mentioned below for calculation of EC50.
(§3) In this equation, Fa stands for “fraction affected,” and represents the fraction of the viral load that has been inactivated. […] ED50 is drug concentration that is expected to reduce the amount of virus by 50%, and m is a parameter that reflects the slope of the concentration-response curve.
In carrying out the combination experiments below, the EC50 for Compound 1 and each comparator compound was determined during the course of each study, and used in the subsequent data analysis.

HIV-1 LAI [2] = experiment: Two-drug combination antiviral assay with Compound 1 (combination indices, Chou and Rideout); format: cell-based; conditions: combination with Compound 1; for Combination Indices at 50% HIV Inhibition (Confidence Interval) / Combination Indices at 75% HIV Inhibition (Confidence Interval) / Combination Indices at 90% HIV Inhibition (Confidence Interval): 95% CI in parenthesis; for Overall Result of two-drug combination: all ratios and inhibition levels
Description: as §1, §2
Analysis of Drug Combination Effects. For determination of CI values, drugs were diluted in a fixed ratio and multiple ratios were analyzed. The drug serial dilutions spanned a range of concentrations near the EC50 value of each compound, so that equivalent antiviral activities could be compared. Concentration-response curves were estimated for each individual drug and every combination using the median-effect equation. The equation was fit using a nonlinear regression routine (Proc Nlin) in PC SAS version 8.01 (SAS Institute Inc., SAS Version 8.01, Cary, NC: SAS Institute Inc., 1990).
as §3
To assess antiviral effects of different drug combination treatments, combination indices (CIs) were calculated according to Chou and Rideout. The combination index was computed as CI=[D]1/[Dm]1+[D]2/[Dm]2
In this equation [Dm]1 and [Dm]2 are the concentrations of drugs that would individually produce a specific level of effect, while [D]1 and [D]2 are the concentrations of drugs in combination that would produce the same level of effect.
Theoretically, additivity is implied if the CI is equal to one, synergy if the CI is less than one, and antagonism if the CI is greater than one. […] At best, we can construct a range that contains the likely values for the CI, given the noise in the data. In this report, these ranges are reported in parentheses next to each point estimate of the CI. […] If the range fell entirely above 1.0, we would infer antagonistic behavior. If the range were to include 1.0, we would infer additivity.

[3] = Human immunodeficiency virus 1, MT2, 120 h
[4] = EC50 ratio 1:1 (Compound 1 to comparator)
[5] = EC50 ratio 1:2.5 (Compound 1 to comparator)
[6] = EC50 ratio 2.5:1 (Compound 1 to comparator)

## c1cc(CN2CCCNCCNCCCNCC2)ccc1CN1CCCNCCNCCCNCC1 [AMD-3100]
Uninfected cells
  Cytotoxicity of the drug combination: No significant cytotoxicity
HIV-1 LAI [1]; [3]
  EC50: 4 nM
HIV-1 LAI [2]; [4]
  Combination Indices at 50% HIV Inhibition (Confidence Interval): 0.51 (0.34, 0.69)
  Combination Indices at 75% HIV Inhibition (Confidence Interval): 0.63 (0.33, 0.94)
  Combination Indices at 90% HIV Inhibition (Confidence Interval): 0.89 (0.22, 1.57)
HIV-1 LAI [2]; [5]
  Combination Indices at 50% HIV Inhibition (Confidence Interval): 0.65 (0.49, 0.80)
  Combination Indices at 75% HIV Inhibition (Confidence Interval): 0.55 (0.37, 0.74)
  Combination Indices at 90% HIV Inhibition (Confidence Interval): 0.58 (0.27, 0.89)
HIV-1 LAI [2]; [6]
  Combination Indices at 50% HIV Inhibition (Confidence Interval): 0.56 (0.38, 0.73)
  Combination Indices at 75% HIV Inhibition (Confidence Interval): 0.62 (0.18, 0.90)
  Combination Indices at 90% HIV Inhibition (Confidence Interval): 0.74 (0.22, 1.26)
HIV-1 LAI [2]
  Overall Result of two-drug combination: moderate synergistic

## CON(Cc1ccc(F)cc1)C(=O)C=C(O)C(=O)O [Compound 2, 3-[(4-Fluorobenzyl)methoxycarbamoyl]-2-hydroxyacrylic acid]
Uninfected cells
  Cytotoxicity of the drug combination: No significant cytotoxicity
HIV-1 LAI [1]; [3]
  EC50: 84 nM
HIV-1 LAI [2]; [4]
  Combination Indices at 50% HIV Inhibition (Confidence Interval): 0.42 (0.32, 0.52)
  Combination Indices at 75% HIV Inhibition (Confidence Interval): 0.49 (0.33, 0.64)
  Combination Indices at 90% HIV Inhibition (Confidence Interval): 0.57 (0.28, 0.85)
HIV-1 LAI [2]; [5]
  Combination Indices at 50% HIV Inhibition (Confidence Interval): 0.38 (0.30, 0.46)
  Combination Indices at 75% HIV Inhibition (Confidence Interval): 0.42 (0.30, 0.55)
  Combination Indices at 90% HIV Inhibition (Confidence Interval): 0.48 (0.26, 0.69)
HIV-1 LAI [2]; [6]
  Combination Indices at 50% HIV Inhibition (Confidence Interval): 0.46 (0.34, 0.59)
  Combination Indices at 75% HIV Inhibition (Confidence Interval): 0.66 (0.41, 0.92)
  Combination Indices at 90% HIV Inhibition (Confidence Interval): 0.96 (0.37, 1.54)
HIV-1 LAI [2]
  Overall Result of two-drug combination: Synergistic

## enfuvirtide
Uninfected cells
  Cytotoxicity of the drug combination: No significant cytotoxicity
HIV-1 LAI [1]; MT-2 cells infected with HIV-1 LAI, MOI 0.005, 5 days, single drug
  EC50: 6 nM
HIV-1 LAI [2]; [4]
  Combination Indices at 50% HIV Inhibition (Confidence Interval): 0.17 (0.13, 0.21)
  Combination Indices at 75% HIV Inhibition (Confidence Interval): 0.42 (0.29, 0.55)
  Combination Indices at 90% HIV Inhibition (Confidence Interval): 1.03 (0.49, 1.58)
HIV-1 LAI [2]; [5]
  Combination Indices at 50% HIV Inhibition (Confidence Interval): 0.14 (0.11, 0.18)
  Combination Indices at 75% HIV Inhibition (Confidence Interval): 0.30 (0.21, 0.39)
  Combination Indices at 90% HIV Inhibition (Confidence Interval): 0.65 (0.32, 0.97)
HIV-1 LAI [2]; [6]
  Combination Indices at 50% HIV Inhibition (Confidence Interval): 0.26 (0.21, 0.31)
  Combination Indices at 75% HIV Inhibition (Confidence Interval): 0.46 (0.34, 0.58)
  Combination Indices at 90% HIV Inhibition (Confidence Interval): 0.82 (0.46, 1.18)
HIV-1 LAI [2]
  Overall Result of two-drug combination: Moderate-
HIV-1 LAI [2]; listed as enfuvurtide
  Overall Result of two-drug combination: moderate synergistic

## O=c1[nH]cnc2c1ncn2[C@H]1CC[C@@H](CO)O1 [Didanosine]
HIV-1 LAI [1]; [3]
  EC50: 644 nM
HIV-1 LAI [2]; [4]
  Combination Indices at 50% HIV Inhibition (Confidence Interval): 0.91 (0.74, 1.09)
  Combination Indices at 75% HIV Inhibition (Confidence Interval): 0.88 (0.65, 1.11)
  Combination Indices at 90% HIV Inhibition (Confidence Interval): 0.88 (0.52, 1.24)
HIV-1 LAI [2]; [5]
  Combination Indices at 50% HIV Inhibition (Confidence Interval): 0.22 (0.19, 0.25)
  Combination Indices at 75% HIV Inhibition (Confidence Interval): 0.18 (0.14, 0.22)
  Combination Indices at 90% HIV Inhibition (Confidence Interval): 0.16 (0.10, 0.21)
HIV-1 LAI [2]; [6]
  Combination Indices at 50% HIV Inhibition (Confidence Interval): 1.02 (0.83, 1.22)
  Combination Indices at 75% HIV Inhibition (Confidence Interval): 0.96 (0.70, 1.21)
  Combination Indices at 90% HIV Inhibition (Confidence Interval): 0.91 (0.53, 1.29)
HIV-1 LAI [2]
  Overall Result of two-drug combination: Additive-

## Cc1c(O)cccc1C(=O)N[C@@H](CSc1ccccc1)[C@H](O)CN1C[C@H]2CCCC[C@H]2C[C@H]1C(=O)NC(C)(C)C [Nelfinavir]
HIV-1 LAI [1]; [3]
  EC50: 6 nM
HIV-1 LAI [2]; [4]
  Combination Indices at 50% HIV Inhibition (Confidence Interval): 0.38 (6.31, 0.46)
  Combination Indices at 75% HIV Inhibition (Confidence Interval): 0.56 (0.47, 0.72)
  Combination Indices at 90% HIV Inhibition (Confidence Interval): 0.83 (0.47, 1.18)
HIV-1 LAI [2]; [5]
  Combination Indices at 50% HIV Inhibition (Confidence Interval): 0.56 (0.46, 0.65)
  Combination Indices at 75% HIV Inhibition (Confidence Interval): 0.89 (0.68, 1.10)
  Combination Indices at 90% HIV Inhibition (Confidence Interval): 1.43 (0.89, 1.97)
HIV-1 LAI [2]; [6]
  Combination Indices at 50% HIV Inhibition (Confidence Interval): 0.17 (0.13, 0.21)
  Combination Indices at 75% HIV Inhibition (Confidence Interval): 0.40 (0.29, 0.52)
  Combination Indices at 90% HIV Inhibition (Confidence Interval): 0.95 (0.49, 1.42)
HIV-1 LAI [2]
  Overall Result of two-drug combination: Additive-

## O=C1Nc2ccc(Cl)cc2[C@@](C#CC2CC2)(C(F)(F)F)O1 [Efavirenz]
HIV-1 LAI [1]; [3]
  EC50: 0.6 nM
HIV-1 LAI [2]; [4]
  Combination Indices at 50% HIV Inhibition (Confidence Interval): 0.93 (0.74, 1.12)
  Combination Indices at 75% HIV Inhibition (Confidence Interval): 0.70 (0.51, 0.90)
  Combination Indices at 90% HIV Inhibition (Confidence Interval): 0.57 (0.32, 0.82)
HIV-1 LAI [2]; [5]
  Combination Indices at 50% HIV Inhibition (Confidence Interval): 0.71 (0.58, 0.85)
  Combination Indices at 75% HIV Inhibition (Confidence Interval): 0.85 (0.62, 1.08)
  Combination Indices at 90% HIV Inhibition (Confidence Interval): 1.10 (0.64, 1.56)
HIV-1 LAI [2]; [6]
  Combination Indices at 50% HIV Inhibition (Confidence Interval): 0.82 (0.62, 1.02)
  Combination Indices at 75% HIV Inhibition (Confidence Interval): 0.83 (0.55, 1.12)
  Combination Indices at 90% HIV Inhibition (Confidence Interval): 0.89 (0.41, 1.36)
HIV-1 LAI [2]
  Overall Result of two-drug combination: Additive-
HIV-1 LAI [2]; listed as efavirenz
  Overall Result of two-drug combination: additive to synergistic

## Cc1cn([C@H]2C=C[C@@H](CO)O2)c(=O)[nH]c1=O [Stavudine]
HIV-1 LAI [1]; [3]
  EC50: 318 nM
HIV-1 LAI [2]; [4]
  Combination Indices at 50% HIV Inhibition (Confidence Interval): 0.25 (0.18, 0.33)
  Combination Indices at 75% HIV Inhibition (Confidence Interval): 0.53 (0.32, 0.74)
  Combination Indices at 90% HIV Inhibition (Confidence Interval): 1.12 (0.38, 1.86)
HIV-1 LAI [2]; [5]
  Combination Indices at 50% HIV Inhibition (Confidence Interval): 0.14 (0.10, 0.19)
  Combination Indices at 75% HIV Inhibition (Confidence Interval): 0.22 (0.13, 0.32)
  Combination Indices at 90% HIV Inhibition (Confidence Interval): 0.36 (0.10, 0.62)
HIV-1 LAI [2]; [6]
  Combination Indices at 50% HIV Inhibition (Confidence Interval): 0.28 (0.24, 0.32)
  Combination Indices at 75% HIV Inhibition (Confidence Interval): 0.39 (0.32, 0.47)
  Combination Indices at 90% HIV Inhibition (Confidence Interval): 0.55 (0.38, 0.73)
HIV-1 LAI [2]
  Overall Result of two-drug combination: Moderate-
